Consider 22 compounds from patent US11485736B2 (KSQ Therapeutics, Inc., priority 2018, dated 2022).

Where two headings read alike, the source gives them in different places.

Data set [1] can be described thus: Liver microsomal stability, human liver microsomes. The format is in vitro ADME. Particulars: 1 μM compound, NADPH, read-out: t1/2 (min) in HLM. As for the experimental part:
(§1) Certain Compounds of the Disclosure were assessed for ADME metabolic stability in human liver microsomes (HLM) and rat liver microsomes (RLM).
(§2) Samples were prepared by adding 222.5 μL of a master solution (100 mM phosphate buffer and 1 mg/mL liver microsomes (HLM or RLM)) and 25 μL of a 10 mM NADPH solution to incubation plates, which were then warmed for 10 min. Each compound was separately dissolved in DMSO to prepare 10 mM stock solutions, which were then diluted to 100 μM with acetonitrile. A reaction was started by adding 2.5 μL of the 100 μM solution of each compound to separate incubation plates such that the final concentration of for each compound in each plate was 1 μM.
(§3) 25 μL aliquots of each sample were taken at 0.5, 5, 10, 15, 20 and 30 minutes, and the reaction was stopped by adding 5 volumes of cold acetonitrile with IS (100 nM alprazolam, 200 nM caffeine and 100 nM tolbutamide). The samples were then centrifuged at 3,220 G for 30 minutes, and 100 μL of the supernatant fluid was mixed with 100 μL of ultra-pure H2O.
(§4) The samples were then analyzed by LC-MS/MS. Peak areas were determined from extracted ion chromatograms. Slope values (k) were determined by linear regression of the natural logarithm of the remaining percentage of the compound vs. incubation time curve. […] The in vitro half-life (min) was converted into the in vitro intrinsic clearance (in vitro CLint, in μL/min/mg protein) using the following equation: […]
A general note: Liver microsomes are vesicles of endoplasmic reticulum, rich in cytochrome P450 enzymes.

A short description of data set [2]: Liver microsomal stability, rat liver microsomes. The format is in vitro ADME. The following applies: 1 μM compound, NADPH, read-out: t1/2 (min) in RLM. As for the experimental part: as §1, §2, §3, §4
The nature of data set [3]: ADME solubility determination at pH 2.0 and pH 7.4. The following applies: aqueous buffer, thermodynamic from solid, LC-MS/MS. The data set is classed as physicochemical. The protocol: Certain Compounds of the Disclosure were assessed for ADME solubility at pH 2.0 and pH 7.4.
Stock solutions were prepared by adding each compound to DMSO at a concentration of 10 mM. Samples were prepared by adding 50 μL of each stock solution to separate vials. The vials were loaded onto a 96-well rack and dried. 500 μL of Phosphate Buffered Saline (PBS) pH 7.4 or PBS pH 2.0 were added into each vial. The vials were then shaken at 25° C. and 1,100 rpm for 24 hours.
After 24 hours, the vials were centrifuged at 3220 G and 25° C. for 30 minutes. The supernatant fluid was analyzed by LC-MS/MS against a standard of known concentration. The solubility of each sample was then calculated using the equation below:
[formula] where DF is the dilution factor.

Where [4] appears, read: PBS pH 2.0, shaken at 25° C. for 24 hours, read-out: Solubility at pH 2.0.
Setting [5] is: PBS pH 7.4, shaken at 25° C. for 24 hours, read-out: Solubility at pH 7.4.

The solubility is the dissolved amount per volume that the medium holds. For `COc1ncnc(C2CC2)c1-c1ncc2nc(C3CC3)n(Cc3ccc(-n4nc(C(F)(F)F)cc4C)cc3)c2n1` [Example 213], the half-life at 1 μM in data set [1] and in data set [2] was > 25 min throughout. In addition, the solubility at 24 h in data set [3] (setting [4]) and in data set [3] (setting [5]) was < 10 µM each time.
As for `COCCOc1ncnc(C2CC2)c1-c1ncc2cnn(Cc3ccc(-n4nc(C(F)(F)F)cc4C)cc3)c2n1` [Example 43], the half-life at 1 μM in data set [1] and in data set [2] was < 25 min each time. Besides, the solubility at 24 h was < 10 µM in data set [3] (setting [4]) and > 10 µM in data set [3] (setting [5]).
For `CCn1cc(C(F)(F)F)nc1-c1ccc(Cn2nc(OC)c3cnc(-c4c(OC)ncnc4C4CC4)nc32)cc1F` [Example 175, 6-(4-cyclopropyl-6-methoxypyrimidin-5-yl)-1-(4-(1-ethyl-4-(trifluoromethyl)-1H-imidazol-2-yl)-3-fluorobenzyl)-3-methoxy-1H-pyrazolo[3,4-d]pyrimidine], the half-life at 1 μM in data set [1] and in data set [2] was > 25 min throughout. Besides, the solubility at 24 h in data set [3] (setting [4]) and in data set [3] (setting [5]) was < 10 µM throughout.
`CCn1cc(C(F)(F)F)nc1-c1ccc(Cn2ncc3cnc(-c4c(OC)ncnc4OC4CC4)nc32)cc1` [Example 114]: the half-life at 1 μM in data set [1] and in data set [2] was < 25 min in each case. For the same compound, the solubility at 24 h in data set [3] (setting [4]) and in data set [3] (setting [5]) was > 10 µM throughout.
`CC(C)c1ccccc1-c1ncc2cnn(Cc3ccc(-c4nc(C(F)(F)F)cn4C)cc3)c2n1` [Example 1, 6-(2-isopropylphenyl)-1-(4-(1-methyl-4-(trifluoromethyl)-1H-imidazol-2-yl)benzyl)-1H-pyrazolo[3,4-d]pyrimidine]: the half-life at 1 μM in data set [1] and in data set [2] was < 25 min in each case. Moreover, the solubility at 24 h in data set [3] (setting [4]) and in data set [3] (setting [5]) was < 10 µM in each case.
With `COc1ncnc(C2CC2)c1-c1ncc2nc(C(C)C)n(Cc3ccc(-c4nc(C(F)(F)F)cn4C(C)C)cc3)c2n1` [Example 208], the half-life at 1 μM in data set [1] and in data set [2] was > 25 min each time. Also, the solubility at 24 h in data set [3] (setting [4]) and in data set [3] (setting [5]) was < 10 µM each time.
`COc1ncnc(C(C)(C)F)c1-c1ncc2cnn(Cc3ccc(-c4nc(C(F)(F)F)cn4C)cc3)c2n1` [Example 110]: the results for the half-life at 1 μM in data set [1] and in data set [2] were < 25 min and > 25 min, respectively. Moreover, the solubility at 24 h in data set [3] (setting [4]) and in data set [3] (setting [5]) was > 10 µM in each case.
With `COc1ncnc(C2CC2)c1-c1ncc2ncn(Cc3ccc(-c4nc(C(F)(F)F)cn4C)cc3)c2n1` [Example 203], the half-life at 1 μM in data set [1] and in data set [2] was < 25 min each time. For the same compound, the solubility at 24 h in data set [3] (setting [4]) and in data set [3] (setting [5]) was > 10 µM each time.
Consider `COc1ncnc(C2CC2)c1-c1ncc2cnn(Cc3ccc(-c4nc(C(F)(F)F)c5n4CCNC5)cc3)c2n1` [Example 136, 6-(4-Cyclopropyl-6-methoxypyrimidin-5-yl)-1-(4-(1-(trifluoromethyl)-5,6,7,8-tetrahydroimidazo[1,5-a]pyrazin-3-yl)benzyl)-1H-pyrazolo[3,4-d]pyrimidine], for which the half-life at 1 μM in data set [1] and in data set [2] was < 25 min in each case. Moreover, the solubility at 24 h in data set [3] (setting [4]) was > 10 µM; in data set [3] (setting [5]), < 10 µM.
For `CCn1cc(C(F)(F)F)nc1-c1ccc([C@H](C)n2ncc3cnc(-c4c(OC)ncnc4C4CC4)nc32)cc1F` [Example 96], the half-life at 1 μM in data set [1] and in data set [2] was > 25 min in each case. Moreover, the solubility at 24 h in data set [3] (setting [4]) and in data set [3] (setting [5]) was < 10 µM throughout.
As to `COc1ncnc(C2CC2)c1-c1ncc2cnn([C@H](C)c3ccc(-c4nc(C(F)(F)F)cn4C)cc3)c2n1` (single isomer, unassigned) [Example 93], the half-life at 1 μM in data set [1] and in data set [2] was < 25 min throughout. In addition, the solubility at 24 h in data set [3] (setting [4]) and in data set [3] (setting [5]) was > 10 µM throughout.
For `Cc1cnn(C(C)C)c1-c1ncc2cnn(Cc3ccc(-n4nc(C(F)(F)F)cc4C)cc3)c2n1` [Example 44], the half-life at 1 μM in data set [1] and in data set [2] was < 25 min throughout. Further, the solubility at 24 h in data set [3] (setting [4]) and in data set [3] (setting [5]) was < 10 µM in each case.
In the case of `COc1ncnc(C2CC2)c1-c1ncc2cnn(Cc3ccc(-c4nc(C(F)(F)F)cn4C)cc3)c2n1` [Example 12, 6-(4-cyclopropyl-6-methoxypyrimidin-5-yl)-1-(4-(1-methyl-4-(trifluoromethyl)-1H-imidazol-2-yl)benzyl)-1H-pyrazolo[3,4-d]pyrimidine], the values for the half-life at 1 μM in data set [1] and in data set [2] were < 25 min and > 25 min, respectively. The solubility at 24 h in data set [3] (setting [4]) and in data set [3] (setting [5]) was > 10 µM each time.
On to `COc1ncnc(C2CC2)c1-c1ncc2cnn(Cc3ccc(-c4nc(C(F)(F)F)nn4C)c(F)c3)c2n1` [Example 57], for which the half-life at 1 μM in data set [1] and in data set [2] was > 25 min throughout. The solubility at 24 h in data set [3] (setting [4]) and in data set [3] (setting [5]) was > 10 µM throughout.
`COc1ncnc(C2CC2)c1-c1ncc2cnn(Cc3ccc(-c4nc(C(F)(F)F)cn4C4COC4)cc3)c2n1` [Example 145]: the half-life at 1 μM in data set [1] was > 25 min; in data set [2], < 25 min. In addition, the solubility at 24 h in data set [3] (setting [4]) and in data set [3] (setting [5]) was > 10 µM throughout.
In the case of `COc1ncnc(C(C)C)c1-c1ncc2cnn(Cc3ccc(-c4nc(C(F)(F)F)cn4C(C)C)cc3)c2n1` [Example 119], the half-life at 1 μM in data set [1] and in data set [2] was > 25 min throughout. Further, the solubility at 24 h in data set [3] (setting [4]) was < 10 µM; in data set [3] (setting [5]) it was > 10 µM.
As to `COc1ncnc(C2CC2)c1-c1ncc2ncn(Cc3ccc(-c4nc(C(F)(F)F)cn4C(C)C)cc3)c2n1` [Example 204], the half-life at 1 μM in data set [1] was > 25 min; in data set [2], < 25 min. Besides, the solubility at 24 h in data set [3] (setting [4]) and in data set [3] (setting [5]) was > 10 µM throughout.
Consider `COc1ncnc(C2CC2)c1-c1ncc2cnn(Cc3ccc(-c4nc(C(F)(F)F)c(OC)n4C)cc3)c2n1` [Example 165], for which the half-life at 1 μM in data set [1] and in data set [2] was > 25 min in each case. The solubility at 24 h in data set [3] (setting [4]) and in data set [3] (setting [5]) was < 10 µM each time.
In the case of `CC(C)c1ccccc1-c1ncc2cnn(C(C)c3ccc(-c4nc(C(F)(F)F)cn4C)cc3)c2n1` (centres unmarked) [Example 24], the half-life at 1 μM in data set [1] and in data set [2] was < 25 min in each case. Further, the solubility at 24 h in data set [3] (setting [4]) and in data set [3] (setting [5]) was < 10 µM each time.
On to `COc1ncnc(C2CC2)c1-c1ncc2cnn(Cc3ccc(-n4nc(C(F)F)cc4C)cc3)c2n1` [Example 50], for which the half-life at 1 μM in data set [1] and in data set [2] was > 25 min in each case. In addition, the solubility at 24 h in data set [3] (setting [4]) and in data set [3] (setting [5]) was < 10 µM each time.
Take `COc1ncnc(OC)c1-c1ncc2cnn(Cc3ccc(-c4nc(C(F)(F)F)cn4C)cc3)c2n1` [Example 86]: the half-life at 1 μM in data set [1] and in data set [2] was > 25 min in each case. Besides, the solubility at 24 h in data set [3] (setting [4]) and in data set [3] (setting [5]) was > 10 µM each time.
Take `COc1ncnc(C2CC2)c1-c1ncc2cnn(Cc3ccc(-c4csc(C(F)(F)F)n4)cc3)c2n1` [Example 126]: the solubility at 24 h in data set [3] (setting [4]) and in data set [3] (setting [5]) was < 10 µM in each case.
